The source of these data is PubChem BioAssay AID248 (DTP/NCI, 2004).

This test deals with L1210 leukemia ip in BDF1 mice, survival T/C. Kind of test: NCI In Vivo Anticancer Drug Screen. Data for tumor model L1210 Leukemia (intraperitoneal) in B6D2F1 (BDF1) mice. The note with it: endpoint: mean survival time, higher = longer survival. The method in brief: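 Transplantable tumor model; survival measured in treated vs vehicle control mice. Value = treated/control.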

[1] abbreviates: dose: 100.0 mg/kg/injection, schedule: Q04DX002 (ip), vehicle: saline with Tween-80.
Where [2] appears, read: dose: 200.0 mg/kg/injection, schedule: Q04DX002 (ip), vehicle: saline with Tween-80.
Where [3] appears, read: dose: 400.0 mg/kg/injection, schedule: Q04DX002 (ip), vehicle: saline with Tween-80.
Where [4] appears, read: dose: 50.0 mg/kg/injection, schedule: Q01DX001 (ip), vehicle: carboxymethylcellulose (CMC).
[5] abbreviates: dose: 100.0 mg/kg/injection, schedule: Q01DX001 (ip), vehicle: carboxymethylcellulose (CMC).
The mark [6] stands for this setting: dose: 200.0 mg/kg/injection, schedule: Q01DX001 (ip), vehicle: carboxymethylcellulose (CMC).
Where [7] appears, read: dose: 100.0 mg/kg/injection, schedule: Q01DX009 (ip), vehicle: Klucel (hydroxypropylcellulose) (HPC).
Setting [8] is: dose: 100.0 mg/kg/injection, schedule: Q04DX003 (ip), vehicle: Klucel (hydroxypropylcellulose) (HPC).
Where [9] appears, read: dose: 200.0 mg/kg/injection, schedule: Q01DX009 (ip), vehicle: Klucel (hydroxypropylcellulose) (HPC).
The mark [10] stands for this setting: dose: 200.0 mg/kg/injection, schedule: Q04DX003 (ip), vehicle: Klucel (hydroxypropylcellulose) (HPC).
Setting [11] is: dose: 400.0 mg/kg/injection, schedule: Q01DX009 (ip), vehicle: Klucel (hydroxypropylcellulose) (HPC).
[12] abbreviates: dose: 400.0 mg/kg/injection, schedule: Q04DX003 (ip), vehicle: Klucel (hydroxypropylcellulose) (HPC).
Setting [13] is: dose: 100.0 mg/kg/injection, schedule: Q01DX009 (ip), vehicle: saline with Tween-80.
Where [14] appears, read: dose: 200.0 mg/kg/injection, schedule: Q01DX009 (ip), vehicle: saline with Tween-80.

Inconclusive results and toxic doses are left out.

Consider `O=c1[nH]nnc2nc[nH]c12`, for which the T/C was 109 % of control (dose: 25.0 mg/kg/injection, schedule: Q01DX001 (ip), vehicle: steriod suspending solution); 100 % of control (dose: 46.1 mg/kg/injection, schedule: Q01DX001 (ip), vehicle: steriod suspending solution); 113 % of control (dose: 50.0 mg/kg/injection, schedule: Q01DX001 (ip), vehicle: steriod suspending solution); 100 % of control (dose: 65.9 mg/kg/injection, schedule: Q01DX001 (ip), vehicle: steriod suspending solution); 102 % of control (dose: 94.2 mg/kg/injection, schedule: Q01DX001 (ip), vehicle: steriod suspending solution); 109 % of control (dose: 100.0 mg/kg/injection, schedule: Q01DX001 (ip), vehicle: steriod suspending solution). Besides, the T/C reads like this: (dose: 134.5 mg/kg/injection, schedule: Q01DX001 (ip), vehicle: steriod suspending solution) 97 % of control; (dose: 192.1 mg/kg/injection, schedule: Q01DX001 (ip), vehicle: steriod suspending solution) 101 % of control; (dose: 200.0 mg/kg/injection, schedule: Q01DX001 (ip), vehicle: steriod suspending solution) 100 % of control; (dose: 274.4 mg/kg/injection, schedule: Q01DX001 (ip), vehicle: steriod suspending solution) 103 % of control; (dose: 392.0 mg/kg/injection, schedule: Q01DX001 (ip), vehicle: steriod suspending solution) 108 % of control; (dose: 400.0 mg/kg/injection, schedule: Q01DX001 (ip), vehicle: steriod suspending solution) 105 % of control. Also, the T/C reads like this: (dose: 560.0 mg/kg/injection, schedule: Q01DX001 (ip), vehicle: steriod suspending solution) 95 % of control; (dose: 800.0 mg/kg/injection, schedule: Q01DX001 (ip), vehicle: steriod suspending solution) 96 % of control.

Turning to `COCCN(CCOC)C(=O)Nc1cccc(Cl)c1`, the T/C is, setting by setting: under setting [1], 90 % of control; under setting [2], 100 % of control; under setting [3], 106 % of control.

Regarding `CN1CCC=C(C(=O)O)C1`, the T/C under setting [4] is 101 % of control, the T/C under setting [5] is 110 % of control and the T/C under setting [6] was 104 % of control.

Take `Oc1ccc(Br)cc1C=Nc1cnc2ccccc2c1`: the T/C was 90 % of control under setting [5] and 90 % of control under setting [6].

With `O=C(NCCCl)Nc1cccc2cccnc12`, the T/C runs as follows: under setting [7], 100 % of control; under setting [8], 100 % of control; under setting [9], 98 % of control; under setting [10], 102 % of control; under setting [11], 98 % of control; under setting [12], 94 % of control.

Consider `CN=C(NC)NN`, for which the T/C was 100 % of control (dose: 30.0 mg/kg/injection, schedule: Q01DX Z (ip), vehicle: methylcellulose (MC)); 103 % of control (dose: 60.0 mg/kg/injection, schedule: Q01DX Z (ip), vehicle: methylcellulose (MC)); 95 % of control under setting [1]; 101 % of control (dose: 125.0 mg/kg/injection, schedule: Q01DX Z (oral), vehicle: methylcellulose (MC)); 95 % of control under setting [2]; 108 % of control (dose: 240.0 mg/kg/injection, schedule: Q01DX Z (ip), vehicle: methylcellulose (MC)). Besides, the T/C was 95 % of control (dose: 250.0 mg/kg/injection, schedule: Q01DX Z (oral), vehicle: methylcellulose (MC)); 105 % of control (dose: 270.0 mg/kg/injection, schedule: Q01DX Z (ip), vehicle: saline); 110 % of control (dose: 375.0 mg/kg/injection, schedule: Q01DX Z (ip), vehicle: methylcellulose (MC)); 100 % of control under setting [3]; 97 % of control (dose: 405.0 mg/kg/injection, schedule: Q01DX Z (ip), vehicle: saline); 102 % of control (dose: 480.0 mg/kg/injection, schedule: Q01DX Z (ip), vehicle: methylcellulose (MC)). For the setting “dose: 609.0 mg/kg/injection, schedule: Q01DX Z (ip), vehicle: saline”, the T/C is 103 % of control.

Consider `CCCCOB(OCCCC)C(C)C(C#N)C#N` (stereo not drawn), for which the T/C (dose: 100.0 mg/kg/injection, schedule: Q01DX009 (ip), vehicle: saline sonified) was 94 % of control; the T/C (dose: 100.0 mg/kg/injection, schedule: Q04DX003 (ip), vehicle: saline with Tween-80) was 110 % of control; the T/C (dose: 200.0 mg/kg/injection, schedule: Q01DX009 (ip), vehicle: saline sonified) was 92 % of control; the T/C (dose: 200.0 mg/kg/injection, schedule: Q04DX003 (ip), vehicle: saline with Tween-80) is 98 % of control; the T/C (dose: 400.0 mg/kg/injection, schedule: Q01DX009 (ip), vehicle: saline sonified) is 89 % of control; the T/C (dose: 400.0 mg/kg/injection, schedule: Q04DX003 (ip), vehicle: saline with Tween-80) is 93 % of control.

As to `Cc1ccnc(NS(=O)(=O)c2ccc(N)cc2)n1`, the T/C was 93 % of control under setting [1], 101 % of control under setting [2] and 93 % of control under setting [3].

As for `N#C/C(=C\C1CCCCC1Cl)C1CCC([N+](=O)[O-])CC1` (stereo not drawn), the T/C (dose: 50.0 mg/kg/injection, schedule: Q04DX002 (ip), vehicle: saline with Tween-80) is 91 % of control; the T/C under setting [1] is 91 % of control; the T/C under setting [2] was 97 % of control.

Regarding `Cc1ccc(/C=N\N=C\c2ccc(C)cc2)cc1`, the T/C runs as follows: under setting [13], 96 % of control; under setting [14], 91 % of control.

Turning to `O=C(OCC#CC#CCOC(=O)c1ccccc1)c1ccccc1`, the T/C was 102 % of control under setting [7]; 94 % of control under setting [8]; 95 % of control under setting [9]; 96 % of control under setting [10]; 104 % of control under setting [11]; 89 % of control under setting [12].

As for `COc1ccc(C(=O)/C=C/c2cccc(OC)c2O)cc1`, the T/C is 101 % of control (dose: 75.0 mg/kg/injection, schedule: Q04DX003 (ip), vehicle: saline); 91 % of control (dose: 150.0 mg/kg/injection, schedule: Q04DX003 (ip), vehicle: saline); 101 % of control (dose: 300.0 mg/kg/injection, schedule: Q04DX003 (ip), vehicle: saline).

On to `O=[N+]([O-])c1ccc(N/N=C\C2CC=C3c4ccccc4CCC3C2/C=N\Nc2ccc([N+](=O)[O-])cc2[N+](=O)[O-])c([N+](=O)[O-])c1` (stereo not drawn), for which the T/C was 89 % of control under setting [4]; 93 % of control under setting [5]; 103 % of control under setting [6]; 108 % of control (dose: 400.0 mg/kg/injection, schedule: Q01DX001 (ip), vehicle: carboxymethylcellulose (CMC)).

Consider `Cc1cccc(CSc2nc(N)nc3c2ncn3C2CC(O)C(CO)O2)n1` (stereo not drawn), for which the T/C was 104 % of control (dose: 100.0 mg/kg/injection, schedule: Q01DX005 (ip), vehicle: saline); 113 % of control (dose: 100.0 mg/kg/injection, schedule: Q01DX009 (ip), vehicle: saline); 107 % of control (dose: 200.0 mg/kg/injection, schedule: Q01DX005 (ip), vehicle: saline); 153 % of control (dose: 600.0 mg/kg/injection, schedule: Q01DX009 (ip), vehicle: saline).

Take `O=[N+]([O-])c1ccc(/C=C/c2ncc[nH]2)o1`: the T/C is, setting by setting: under setting [8], 92 % of control; under setting [10], 92 % of control.

On to `CC(C#N)(Cc1ccccc1)Nc1ccccc1` (stereo not drawn), for which the T/C is 102 % of control (dose: 50.0 mg/kg/injection, schedule: Q01DX009 (ip), vehicle: saline with Tween-80); 101 % of control under setting [13]; 96 % of control under setting [14].

In the case of `OC(Cc1cccc(=S)[nH]1)(c1ccccc1)c1ccccc1`, the T/C was 98 % of control (dose: 100.0 mg/kg/injection, schedule: Q01DX001 (ip), vehicle: saline); 93 % of control (dose: 200.0 mg/kg/injection, schedule: Q01DX001 (ip), vehicle: saline); 91 % of control (dose: 400.0 mg/kg/injection, schedule: Q01DX001 (ip), vehicle: saline).

Regarding `CCN1CCN(CC)C1=S`, the T/C is 114 % of control (dose: 50.0 mg/kg/injection, schedule: Q04DX002 (ip), vehicle: Klucel (hydroxypropylcellulose) (HPC)); 90 % of control (dose: 100.0 mg/kg/injection, schedule: Q04DX002 (ip), vehicle: Klucel (hydroxypropylcellulose) (HPC)); 109 % of control (dose: 200.0 mg/kg/injection, schedule: Q04DX002 (ip), vehicle: Klucel (hydroxypropylcellulose) (HPC)).
